{"source": "patent US8133888B2", "about": "“Hydrazide containing taxane conjugates” (Sun Pharma Advanced Research Company Ltd., priority 2008, dated 2012)", "key": {"[1]": {"assay": "Solubility of the taxane conjugates in water with added acid (visual clarity)", "format": "physicochemical", "details": "2 mg dispersed in 0.5 ml water, sonicated, 20 μl of 2.5M HCl added, sonicated about 2 min", "protocol": "About 2 mg of the taxane conjugate of formula I was dispersed in 0.5 ml water (sterile) and sonicated for about 2 min. Small aliquots of a pharmaceutically accepted acid was added, sonicated for 2-3 min after each addition and observed for visual clarity.\nFor example, 2 mg of compound I.03 was dispersed in 0.5 ml water and sonicated for about 2 min."}, "[2]": {"assay": "Conversion of compound of formula I to the active taxane compound in human plasma (LC-MS/MS)", "format": "in vitro ADME", "details": "37° C.; for Peak Area of test compound / % Unconverted Compound I.04: human plasma; for Peak Area of docetaxel formed: docetaxel released from compound I.04 in human plasma", "protocol": "The conversion of the test compound I.04 of the present invention to the active/parent taxane compound was determined in the human plasma sample. The test compound of 2000 ng per nil concentration was added to human plasma at ambient temperature and was kept in an incubator maintained at 37° C. Aliquots of this plasma sample were taken at definite time intervals and subjected to LC-MS/MS analysis. The samples were analyzed for amount of unconverted test compound and the amount of docetaxel formed in the test solution using LC-MS/MS operating in selected reaction monitoring (SRM) mode, as per follows: • Column: Hypurity Aquastar C-18, 50×2.1 mm, 3 micron • Mobile Phase: 10 mmol ammonium acetate-acetonitrile, 40:60 • Flow Rate: 250 μl/min • Oven Temperature: 45° C. • Retention time of compound I.04: 13.9 min • Retention time of docetaxel: 0.79 min\nThe parent ions>product ions monitored were the following: […]"}, "[3]": {"details": "cited from earlier work"}}}
{"smiles": "CC(=O)O[C@@]12CO[C@@H]1C[C@H](OC(=O)CCC(=O)NN1CCCCC1)[C@@]1(C)C(=O)[C@H](O)C3=C(C)[C@@H](OC(=O)[C@H](OC(=O)CCC(=O)NN4CCCCC4)[C@@H](NC(=O)OC(C)(C)C)c4ccccc4)C[C@@](O)([C@@H](OC(=O)c4ccccc4)[C@H]21)C3(C)C", "note": "[Compound I.03, 10-Deacetyl-N-debenzoyl-N-(tert-butyloxycarbonyl)-2′,7-bis[(N-piperidin-1-yl)succinamidoyl]taxol]", "values": [{"measurement": "Solubility, visual clarity", "setting": "[1]", "value": "clear solution"}]}
{"smiles": "CC(=O)O[C@@]12CO[C@@H]1C[C@H](O)[C@@]1(C)C(=O)[C@H](O)C3=C(C)[C@@H](OC(=O)[C@H](OC(=O)CCC(=O)NN4CCCCC4)[C@@H](NC(=O)OC(C)(C)C)c4ccccc4)C[C@@](O)([C@@H](OC(=O)c4ccccc4)[C@H]21)C3(C)C", "note": "[Compound I.04, 10-Deacetyl-N-debenzoyl-N-(tert-butyloxycarbonyl)-2′-[(N-piperidin-1-yl)-succinamidoyl]taxol]", "values": [{"measurement": "Peak Area of test compound", "setting": "[2]; time 0 hrs", "value": 24696932.5, "unit": "counts"}, {"measurement": "% Unconverted Compound I.04", "setting": "[2]; time 0.0 hrs", "value": 100, "unit": "%"}, {"measurement": "% Unconverted Compound I.04", "setting": "[2]; time 0.5 hrs", "value": 59.1, "unit": "%"}, {"measurement": "Peak Area of test compound", "setting": "[2]; time 0.5 hrs", "value": 19303514.4, "unit": "counts"}, {"measurement": "Peak Area of test compound", "setting": "[2]; time 1 hrs", "value": 16791382.3, "unit": "counts"}, {"measurement": "% Unconverted Compound I.04", "setting": "[2]; time 1.0 hrs", "value": 40.3, "unit": "%"}, {"measurement": "Peak Area of test compound", "setting": "[2]; time 2 hrs", "value": 11789443.5, "unit": "counts"}, {"measurement": "% Unconverted Compound I.04", "setting": "[2]; time 2.0 hrs", "value": 4.7, "unit": "%"}, {"measurement": "Peak Area of test compound", "setting": "[2]; time 3 hrs", "value": 6259891.0, "unit": "counts"}, {"measurement": "Peak Area of test compound", "setting": "[2]; time 4 hrs", "value": 3007853.1, "unit": "counts"}, {"measurement": "% Unconverted Compound I.04", "setting": "[2]; time 4.0 hrs", "value": 0.1, "unit": "%"}, {"measurement": "Peak Area of test compound", "setting": "[2]; time 6 hrs", "value": 904115.8, "unit": "counts"}]}
{"smiles": "CC(=O)O[C@@]12CO[C@@H]1C[C@H](O)[C@@]1(C)C(=O)[C@H](O)C3=C(C)[C@@H](OC(=O)[C@H](O)[C@@H](NC(=O)OC(C)(C)C)c4ccccc4)C[C@@](O)([C@@H](OC(=O)c4ccccc4)[C@H]21)C3(C)C", "note": "[Docetaxel, docetaxel, reference compound]", "values": [{"measurement": "Solubility in water", "setting": "[3]", "value": "< 50", "unit": "µg/mL"}, {"measurement": "Solubility, visual clarity", "setting": "[1]", "value": "completely insoluble"}, {"measurement": "Peak Area of docetaxel formed", "setting": "[2]; time 0 hrs", "value": 10447.0, "unit": "counts"}, {"measurement": "Peak Area of docetaxel formed", "setting": "[2]; time 0.5 hrs", "value": 70713.8, "unit": "counts"}, {"measurement": "Peak Area of docetaxel formed", "setting": "[2]; time 1 hrs", "value": 125083.0, "unit": "counts"}, {"measurement": "Peak Area of docetaxel formed", "setting": "[2]; time 2 hrs", "value": 243846.6, "unit": "counts"}, {"measurement": "Peak Area of docetaxel formed", "setting": "[2]; time 3 hrs", "value": 331134.0, "unit": "counts"}, {"measurement": "Peak Area of docetaxel formed", "setting": "[2]; time 4 hrs", "value": 464924.3, "unit": "counts"}, {"measurement": "Peak Area of docetaxel formed", "setting": "[2]; time 6 hrs", "value": 546298.2, "unit": "counts"}]}
{"smiles": "CC(=O)O[C@H]1C(=O)[C@@]2(C)[C@H]([C@H](OC(=O)c3ccccc3)[C@]3(O)C[C@H](OC(=O)[C@H](O)[C@@H](NC(=O)c4ccccc4)c4ccccc4)C(C)=C1C3(C)C)[C@]1(OC(C)=O)CO[C@@H]1C[C@@H]2O", "note": "[paclitaxel]", "values": [{"measurement": "Solubility in water (in words)", "setting": "[3]", "value": "poorly soluble in water"}, {"measurement": "Solubility, visual clarity", "setting": "[1]", "value": "completely insoluble"}]}
